Assay results as given in patent publication US12637437B2, “Herbicidal compounds” (SYNGENTA CROP PROTECTION AG, priority 2021, dated 2026).

Assays:
Type in all cases: in vivo
[1] = test system: Ipomoea hederacea (IPOHE); experiment: Post-emergence herbicidal glasshouse test, IPOHE; conditions: 125 g/h, evaluated after 13 days, five-point scale
Experimental: (§1) Seeds of a variety of test species are sown in standard soil in pots (Lolium perenne (LOLPE), Amaranthus retoflexus (AMARE), Abutilon theophrasti (ABUTH), Setaria faberi (SETFA), Echinochloa crus-galli (ECHCG), Ipomoea hederacea (IPOHE)). After cultivation for one day (pre-emergence) or after 8 days cultivation (post-emergence) under controlled conditions in a glasshouse (at 24/16° C., day/night; 14 hours light; 65% humidity), the plants are sprayed with an aqueous spray solution derived from the formulation of the technical active ingredient in acetone/water (50:50) solution containing 0.5% Tween 20 (polyoxyethelyene sorbitan monolaurate, CAS RN 9005-64-5). Compounds are applied at 125 g/h unless otherwise indicated. The test plants are then grown in a glasshouse under controlled conditions in a glasshouse (at 24/16° C., day/night; 14 hours light; 65% humidity) and watered twice daily. After 13 days for pre and post-emergence, the test is evaluated for the percentage damage caused to the plant. The biological activities are shown in the following table on a five-point scale (5=80-100%; 4=60-79%; 3=40-59%; 2=20-39%; 1=0-19%). “—” denotes not tested on this species or data not captured.

[2] = test system: Ipomoea hederacea (IPOHE); experiment: Pre-emergence herbicidal glasshouse test, IPOHE; conditions: 125 g/h, evaluated after 13 days, five-point scale
Experimental: as §1

Setaria faberi (SETFA) [3] = experiment: Pre-emergence herbicidal glasshouse test, SETFA; conditions: 125 g/h, evaluated after 13 days, five-point scale
Experimental: as §1

[4] = test system: Echinochloa crus-galli (ECHCG); experiment: Pre-emergence herbicidal glasshouse test, ECHCG; conditions: 125 g/h, evaluated after 13 days, five-point scale
Experimental: as §1

Setaria faberi (SETFA) [5] = experiment: Post-emergence herbicidal glasshouse test, SETFA; conditions: 125 g/h, evaluated after 13 days, five-point scale
Experimental: as §1

[6] = test system: Amaranthus retoflexus (AMARE); experiment: Pre-emergence herbicidal glasshouse test, AMARE; conditions: 125 g/h, evaluated after 13 days, five-point scale
Experimental: as §1

[7] = test system: Amaranthus retoflexus (AMARE); experiment: Post-emergence herbicidal glasshouse test, AMARE; set-up: dose or concentration left out as unconfirmed; conditions: evaluated after 13 days, five-point scale
Experimental: as §1

[8] = test system: Echinochloa crus-galli (ECHCG); experiment: Post-emergence herbicidal glasshouse test, ECHCG; conditions: 125 g/h, evaluated after 13 days, five-point scale
Experimental: as §1

Structure (SMILES) | percentage damage caused to the plant, POST Application IPOHE [1] | percentage damage caused to the plant, PRE Application IPOHE [2] | percentage damage caused to the plant, PRE Application SETFA (Setaria faberi (SETFA) [3]) | percentage damage caused to the plant, PRE Application ECHCG [4] | percentage damage caused to the plant, POST Application SETFA (Setaria faberi (SETFA) [5]) | percentage damage caused to the plant, PRE Application AMARE [6] | percentage damage caused to the plant, POST Application AMARE [7] | percentage damage caused to the plant, POST Application ECHCG [8]
CCCOC(=O)Nc1c(OC(F)(F)F)ccc(C(=O)Nc2nnnn2C)c1Cl [Compound 1.014] | 4 (4=60-79%) | 2 (2=20-39%) | 4 (4=60-79%) | 4 (4=60-79%) | 5 (5=80-100%) | 3 (3=40-59%) | 4 (4=60-79%) | 5 (5=80-100%)
Cn1nnnc1NC(=O)c1ccc(OC(F)F)c(NC(=O)OCC(F)F)c1Cl [Compound 1.015] | 4 (4=60-79%) | 3 (3=40-59%) | 5 (5=80-100%) | 5 (5=80-100%) | 5 (5=80-100%) | 5 (5=80-100%) | 5 (5=80-100%) | 5 (5=80-100%)
CCCOC(=O)Nc1c(OC(F)F)ccc(C(=O)Nc2nnnn2C)c1Cl [Compound 1.016] | 3 (3=40-59%) | 2 (2=20-39%) | 3 (3=40-59%) | 4 (4=60-79%) | 5 (5=80-100%) | 5 (5=80-100%) | 4 (4=60-79%) | 5 (5=80-100%)
CC(C)OC(=O)Nc1c(OC(F)F)ccc(C(=O)Nc2nnnn2C)c1Cl [Compound 1.017] | 5 (5=80-100%) | 4 (4=60-79%) | 5 (5=80-100%) | 5 (5=80-100%) | 5 (5=80-100%) | 5 (5=80-100%) | 5 (5=80-100%) | 5 (5=80-100%)
COCCOC(=O)Nc1c(OC(F)F)ccc(C(=O)Nc2nnnn2C)c1Cl [Compound 1.018] | 4 (4=60-79%) | 2 (2=20-39%) | 3 (3=40-59%) | 4 (4=60-79%) | 5 (5=80-100%) | 4 (4=60-79%) | 4 (4=60-79%) | 5 (5=80-100%)
COCCCOC(=O)Nc1c(OC(F)(F)F)ccc(C(=O)Nc2nnnn2C)c1Cl [Compound 1.019] | 4 (4=60-79%) | 4 (4=60-79%) | 2 (2=20-39%) | 5 (5=80-100%) | 5 (5=80-100%) | 3 (3=40-59%) | 5 (5=80-100%) | 5 (5=80-100%)
Cn1nnnc1NC(=O)c1ccc(OC(F)(F)F)c(NC(=O)OC2CCOCC2)c1Cl [Compound 1.020] | 5 (5=80-100%) | 5 (5=80-100%) | 5 (5=80-100%) | 5 (5=80-100%) | 5 (5=80-100%) | 5 (5=80-100%) | 5 (5=80-100%) | 5 (5=80-100%)
CC(=O)N1CCC(OC(=O)Nc2c(OC(F)(F)F)ccc(C(=O)Nc3nnnn3C)c2Cl)CC1 [Compound 1.021] | 2 (2=20-39%) | 2 (2=20-39%) | 1 (1=0-19%) | 1 (1=0-19%) | 4 (4=60-79%) | 3 (3=40-59%) | 4 (4=60-79%) | 5 (5=80-100%)
COCCCOC(=O)Nc1c(OC(F)F)ccc(C(=O)Nc2nnnn2C)c1Cl [Compound 1.022] | 4 (4=60-79%) | 4 (4=60-79%) | 4 (4=60-79%) | 4 (4=60-79%) | 5 (5=80-100%) | 5 (5=80-100%) | 5 (5=80-100%) | 5 (5=80-100%)
CC(=O)N1CCC(OC(=O)Nc2c(OC(F)F)ccc(C(=O)Nc3nnnn3C)c2Cl)CC1 [Compound 1.023] | 1 (1=0-19%) | 2 (2=20-39%) | 1 (1=0-19%) | 1 (1=0-19%) | 2 (2=20-39%) | 3 (3=40-59%) | 4 (4=60-79%) | 3 (3=40-59%)
Cn1nnnc1NC(=O)c1ccc(OC(F)F)c(NC(=O)OCCC#N)c1Cl [Compound 1.024] | 4 (4=60-79%) | 5 (5=80-100%) | 3 (3=40-59%) | 4 (4=60-79%) | 5 (5=80-100%) | 5 (5=80-100%) | 5 (5=80-100%) | 5 (5=80-100%)
Cn1nnnc1NC(=O)c1ccc(OC(F)F)c(NC(=O)OC2CCOCC2)c1Cl [Compound 1.027] | 5 (5=80-100%) | 4 (4=60-79%) | 5 (5=80-100%) | 4 (4=60-79%) | 5 (5=80-100%) | 4 (4=60-79%) | 5 (5=80-100%) | 5 (5=80-100%)
CCOC(=O)N(CC)c1c(OC(F)(F)F)ccc(C(=O)Nc2nnnn2C)c1Cl [Compound 1.031] | 5 (5=80-100%) | 5 (5=80-100%) | 5 (5=80-100%) | 5 (5=80-100%) | 5 (5=80-100%) | 5 (5=80-100%) | 5 (5=80-100%) | 5 (5=80-100%)
COC(=O)Nc1c(OC(F)(F)F)ccc(C(=O)Nc2nnnn2C)c1C [Compound 1.035] | 3 (3=40-59%) | 3 (3=40-59%) | 5 (5=80-100%) | 5 (5=80-100%) | 5 (5=80-100%) | 5 (5=80-100%) | 5 (5=80-100%) | 5 (5=80-100%)
CCOC(=O)Nc1c(OC(F)(F)F)ccc(C(=O)Nc2nnnn2C)c1C [Compound 1.036] | 5 (5=80-100%) | 5 (5=80-100%) | 5 (5=80-100%) | 5 (5=80-100%) | 5 (5=80-100%) | 5 (5=80-100%) | 5 (5=80-100%) | 5 (5=80-100%)
